The record followed here is US10815238B2, “Antimicrobial compounds and methods of making and using the same” (BIOVERSYS AG, priority 2013, dated 2020).

Assay [1] has as its system Staphylococcus aureus (S. aureus) 11540 strain. The experiment in a line: Standard microdilution assay, MIC against S. aureus 11540. The assay is classed as cell-based. The following applies: S. aureus 11540 strain, standard microdilution assay, cutoff 16 micrograms/mL, read-out: MIC S. aureus. The method in brief:
(§1)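 MIC determined by broth microdilution following CLSI protocols, with reference strains run in parallel for quality control. Activity scored +/− at a cutoff of 16 micrograms/mL.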
A general note: Dilution methods test growth across graded concentrations, often in twofold steps.

Assay [2] has as its system Eschericia coli (E. coli) strain ATCC25922. The experiment in a line: Standard microdilution assay, MIC against E. coli ATCC25922. Type of assay: cell-based. The following applies: Escherichia coli; E. coli strain ATCC25922, standard microdilution assay; cutoff 16 micrograms/mL; read-out: MIC E. Coli. The essentials: as §1

As for `COCC[C@H](CCN[C@@H](C)c1ccc(-n2cc3cc(-c4cc(CCC[C@H](C)N)cc(OC(F)(F)F)c4F)[nH]c3nc2=O)cc1)NC(=N)N` [Compound 350], the MIC in assay [1] and in assay [2] was under 16 µg/mL each time.

Take `C[C@H](N)CCCc1cc(OC(F)(F)F)c(F)c(-c2cc3cn(-c4ccc(C(=O)NCCCNC(=N)N)cc4)c(=O)nc3[nH]2)c1` [Compound 461]: the MIC in assay [1] and in assay [2] was under 16 µg/mL each time.

In the case of `C[C@H](N)CCCc1cccc(-c2cc3cn(-c4ccc([C@@H]5CCC[C@@H](CCNC(=N)N)N5)cc4)c(=O)nc3[nH]2)c1` [Compound 531], the MIC in assay [1] and in assay [2] was under 16 µg/mL each time.

In the case of `C[C@H](N)CCCc1cc(Cl)c(F)c(-c2cc3cn(-c4ccc([C@H](C)NCC[C@H](N)CNC(=O)CN)cc4)c(=O)nc3[nH]2)c1` [Compound 424], the MIC in assay [1] and in assay [2] was under 16 µg/mL in each case.

As for `C[C@H](N)CCCc1cc(OC(F)(F)F)c(F)c(-c2cc3cn(-c4ccc([C@H](C)N[C@@H](CCNC(=N)N)C(=O)O)cc4)c(=O)nc3[nH]2)c1` [Compound 364], the MIC in assay [1] and in assay [2] was over 16 µg/mL each time.

For the compound `C[C@H](NCCCNC(=N)N)c1ccc(-n2cc3cc(-c4cc([C@@H]5CC[C@H](CN)O5)cc(Cl)c4F)[nH]c3nc2=O)cc1` [Compound 446], the MIC in assay [1] and in assay [2] was under 16 µg/mL throughout.

As for `C[C@H](N)CCCc1cc(OC(F)(F)F)c(F)c(-c2cc3cn(-c4ccc(CNCC[C@@H](CN)NC(=N)N)cc4)c(=O)nc3[nH]2)c1` [Compound 376], the MIC in assay [1] and in assay [2] was under 16 µg/mL in each case.

As to `C[C@H](N)CCCc1cc(Cl)c(F)c(-c2cc3cn(-c4ccc([C@H]5CCC[C@H](CCNc6ncc[nH]6)N5)cc4)c(=O)nc3[nH]2)c1` [Compound 542], the minimal inhibitory concentration (MIC) in assay [1] and in assay [2] was under 16 µg/mL throughout.

Consider `C[C@H](NCCCNC(=N)N)c1ccc(-n2cc3cc(-c4cc(CCC[C@H](N)CO)cc(Cl)c4F)[nH]c3nc2=O)cc1` [Compound 476], for which the MIC in assay [1] and in assay [2] was under 16 µg/mL throughout.

Turning to `C[C@H](N)CCN1CC[C@@H](c2cc3cn(-c4ccc(CNCCCNC(=N)N)cc4)c(=O)nc3[nH]2)C1` [Compound 572], the minimal inhibitory concentration (MIC) in assay [1] and in assay [2] was under 16 µg/mL throughout.

As to `C[C@H](N)CCCc1cc(Cl)c(F)c(-c2cc3cn(-c4ccc(CN[C@H](CCNC(=N)N)Cn5ccnn5)cc4)c(=O)nc3[nH]2)c1` [Compound 499], the minimum inhibitory concentration (MIC) in assay [1] and in assay [2] was under 16 µg/mL each time.

Take `C[C@H](NCCCN)c1ccc(-n2cc3cc(-c4cc(CCC[C@H](C)NC(=N)N)cc(Cl)c4F)[nH]c3nc2=O)cc1` [Compound 324]: the minimal inhibitory concentration (MIC) in assay [1] and in assay [2] was under 16 µg/mL throughout.

Take `C[C@H](N)CCCc1cc(Cl)c(F)c(-c2cc3cn(-c4ccc([C@@H]5CCC[C@@H](CCC(N)=O)N5)cc4)c(=O)nc3[nH]2)c1` [Compound 511]: the MIC in assay [1] and in assay [2] was under 16 µg/mL each time.

`C[C@H](N)CCCc1cc(OC(F)(F)F)c(F)c(-c2cc3cn(-c4ccc(CN5CC[C@H](CN6CCOCC6)NC5=N)cc4)c(=O)nc3[nH]2)c1` [Compound 419]: the MIC in assay [1] and in assay [2] was under 16 µg/mL in each case.

`C[C@H](N)CCCc1cc(OC(F)(F)F)c(F)c(-c2cc3cn(-c4ccc([C@@H](C)NCCCN)cc4)c(=O)nc3[nH]2)c1` [Compound 320]: the MIC in assay [1] and in assay [2] was under 16 µg/mL each time.

With `C[C@H](N)CCCc1cc(OC(F)(F)F)c(F)c(-c2cc3cn(-c4ccc([C@@H](N)CCN)cc4)c(=O)nc3[nH]2)c1` [Compound 426], the MIC in assay [1] and in assay [2] was under 16 µg/mL in each case.

Regarding `C[C@H](N)CCCc1cc(OC(F)(F)F)c(F)c(-c2cc3cn(-c4ccc([C@H]5CC[C@H](CCNC(=N)N)N5)cc4)c(=O)nc3[nH]2)c1` [Compound 352], the MIC in assay [1] and in assay [2] was under 16 µg/mL throughout.

With `C[C@H](N)CCCc1cc(Cl)c(F)c(-c2cc3cn(-c4ccc([C@@H]5CCC[C@@H](Cn6cn[nH]c6=O)N5)cc4)c(=O)nc3[nH]2)c1` [Compound 539], the MIC in assay [1] and in assay [2] was over 16 µg/mL each time.

In the case of `C[C@H](N)CCCc1cc(OC(F)(F)F)c(F)c(-c2cc3cn(-c4ccc([C@H](N)CCNC(=N)N)cc4)c(=O)nc3[nH]2)c1` [Compound 443], the MIC in assay [1] and in assay [2] was under 16 µg/mL throughout.

On to `C[C@H](N)CCCc1cc(OC(F)(F)F)c(F)c(-c2cc3cn(-c4ccc([C@@H]5COC[C@H](CCN)N5)cc4)c(=O)nc3[nH]2)c1` [Compound 358], for which the minimal inhibitory concentration (MIC) in assay [1] and in assay [2] was under 16 µg/mL in each case.

Regarding `N=C(N)NCC[C@@H]1CCC[C@@H](c2ccc(-n3cc4cc(-c5ccc(S(=O)(=O)NC6CCNCC6)cc5)[nH]c4nc3=O)cc2)N1` [Compound 492], the minimal inhibitory concentration (MIC) in assay [1] and in assay [2] was under 16 µg/mL each time.

With `C[C@H](N)CCCc1cc(Cl)c(F)c(-c2cc3cn(-c4ccc([C@H](C)NCC[C@H](CC#N)NC(=N)N)cc4)c(=O)nc3[nH]2)c1` [Compound 332], the minimal inhibitory concentration (MIC) in assay [1] and in assay [2] was under 16 µg/mL each time.

As to `C[C@H](N)CCCc1cc(Cl)c(F)c(-c2cc3cn(-c4ccc([C@@H]5COC[C@H](CCN)N5)cc4)c(=O)nc3[nH]2)c1` [Compound 385], the MIC in assay [1] and in assay [2] was under 16 µg/mL each time.

For the compound `C[C@H](N)CCCc1cc(Cl)c(F)c(-c2cc3cn(-c4ccc([C@@H]5CCC[C@@H](CCC6CC6)N5)cc4)c(=O)nc3[nH]2)c1` [Compound 532], the values for the MIC in assay [1] and in assay [2] were under 16 µg/mL and over 16 µg/mL, respectively.

For the compound `C[C@H](N)CCCc1cc(Cl)c(F)c(-c2cc3cn(-c4ccc(C5(CCN)CN(C(=N)N)C5)cc4)c(=O)nc3[nH]2)c1` [Compound 403], the minimal inhibitory concentration (MIC) in assay [1] and in assay [2] was under 16 µg/mL in each case.

For `C[C@H](N)CCCc1cc(Cl)c(F)c(-c2cc3cn(-c4ccc([C@H]5COC[C@@H](CO)N5)cc4)c(=O)nc3[nH]2)c1` [Compound 390], the MIC in assay [1] and in assay [2] was over 16 µg/mL in each case.

Consider `C[C@H](N)CCCc1cc(OC(F)(F)F)c(F)c(-c2cc3cn(-c4ccc([C@@H]5COC[C@@H](CO)N5)cc4)c(=O)nc3[nH]2)c1` [Compound 453], for which the minimal inhibitory concentration (MIC) in assay [1] and in assay [2] was over 16 µg/mL each time.

For `C[C@H](N)CCCc1cc(OC(F)(F)F)c(F)c(-c2cc3cn(-c4ccc([C@@H](N)CCNC(=N)N)cc4)c(=O)nc3[nH]2)c1` [Compound 428], the minimum inhibitory concentration (MIC) in assay [1] and in assay [2] was under 16 µg/mL each time.

As for `CC[C@H](N)CCCc1cc(Cl)c(F)c(-c2cc3cn(-c4ccc([C@H](C)NCC[C@H](CN)NC(=N)N)cc4)c(=O)nc3[nH]2)c1` [Compound 414], the minimum inhibitory concentration (MIC) in assay [1] and in assay [2] was under 16 µg/mL throughout.

For `C[C@H](N)CCCc1cc(OC(F)(F)F)c(F)c(-c2cc3cn(-c4ccc([C@H](C)NCC[C@@H](Cn5cc(CN)nn5)NC(=N)N)cc4)c(=O)nc3[nH]2)c1` [Compound 327], the MIC in assay [1] and in assay [2] was under 16 µg/mL each time.

Turning to `C[C@H](N)CCCc1cc(Cl)c(F)c(-c2cc3cn(-c4ccc(CN[C@H](CCN)CNc5ncc[nH]5)cc4)c(=O)nc3[nH]2)c1` [Compound 537], the MIC in assay [1] and in assay [2] was under 16 µg/mL each time.

Turning to `COC(=O)[C@H](CCNC(=N)N)N[C@@H](C)c1ccc(-n2cc3cc(-c4cc(CCC[C@H](C)N)cc(OC(F)(F)F)c4F)[nH]c3nc2=O)cc1` [Compound 362], the minimum inhibitory concentration (MIC) in assay [1] and in assay [2] was under 16 µg/mL each time.

For orientation: MIC means the lowest concentration that inhibits growth of the organism.
